Source: US12168781B2, “Production method for T cells or NK cells, medium for culturing T cells or NK cells, method for culturing T cells or NK cells, method for maintaining undifferentiated state of undifferentiated T cells, and growth-accelerating agent for T cells or NK cells” (KIRIN HOLDINGS KABUSHIKI KAISHA, priority 2018, dated 2024)

Test system: CD8beta(+)CD8alpha(+) T cells
Assay: Long-term culturing of T cells obtained by feeder-free differentiation induction, trypan blue count
Assay type: cell-based, human
Details: 1 μM, FIG. 14(B)
Method: The possibility of long-term culturing of T-iPS-T cells using berbamine was evaluated. First, T cells were induced from T-iPS cells without using a feeder. For the maintenance of iPS cells, StemFit AK02N medium (Ajinomo) was used for feeder-free iPS cells. The iPS cells were detached from the culture surface coated with iMatrix-511 using a dissociation agent [1× TrypLE Select (Thermo Fisher Scientific) was diluted to 1/2 with PBS, and a 0.5 mol/L EDTA solution (pH 8, Nacalai Tesque) was added thereto to give a final concentration of 0.5× TrypLE Select and 0.75 mM EDTA], and subcultured in a culture medium obtained by adding 10 μM Y-27632 to StemFit AK02N (37° C., 5% CO2). On the following day, the culture medium was replaced with Stemfit AK02N. This operation was repeated once a week to maintain the iPS cells.
Hematopoietic progenitor cells (HPCs) were produced by inducing the differentiation of iPS cells by an embryoid body formation method. The feeder-free iPS cells were detached with 0.5× TrypLE Select, and 0.75 mM EDTA, and then seeded at 2 to 3×10^5 cells/well in a 6-well plate (CORNING) subjected to an ultra-low adhesion treatment. By using Stemfit AK02N medium supplemented with 10 μM Y-27632 (Nacalai Tesque) and 10 μM CHIR99021 (Tocris Bioscience), the cells were cultured under low oxygen conditions (5% 02) (Day 0). […]

SMILES: COc1cc2c3cc1Oc1c(OC)c(OC)cc4c1[C@@H](Cc1ccc(O)c(c1)Oc1ccc(cc1)C[C@@H]3N(C)CC2)N(C)CC4 [berbamine]
- period for which the cells could be cultured (restimulated on day 14, 28, 42, MilliQ water control could not be cultured after day 42): 56 days
- proliferation of the cells in long-term culturing (vs MilliQ water): enhancement of the proliferation of T-iPS-T cells
